PubChem BioAssay AID184 (DTP/NCI, 2004)
“And” between values parts separate entries of the source, which are not always exact repeats. Identical values can stand only once. Toxic doses and inconclusive results are not listed.

System: BALB/cJ mice, ADJ-PC-6 ip tumor, median survival T/C
Test: NCI In Vivo Anticancer Drug Screen. Data for tumor model ADJ-PC-6 (intraperitoneal) in BALB/cJ mice
Settings: endpoint: median survival time, higher = longer survival
Protocol: The antitumor activity of compounds was measured in mice bearing transplantable tumors. Survival or tumor size were measured and the results are expressed as the measurement made in the treated group (T) divided by the measurement made in the vehicle treated control group (C). The tumor model used in this assay is ADJ-PC-6 (intraperitoneal) in BALB/cJ mice

[1] = dose: 5.0 mg/kg/injection, schedule: Q04DX003 (ip), vehicle: saline
[2] = dose: 10.0 mg/kg/injection, schedule: Q04DX003 (ip), vehicle: saline
[3] = dose: 2.0 mg/kg/injection, schedule: Q04DX003 (ip), vehicle: saline
[4] = dose: 12.5 mg/kg/injection, schedule: Q04DX003 (ip), vehicle: saline
[5] = dose: 25.0 mg/kg/injection, schedule: Q04DX003 (ip), vehicle: saline
[6] = dose: 50.0 mg/kg/injection, schedule: Q04DX003 (ip), vehicle: saline
[7] = dose: 100.0 mg/kg/injection, schedule: Q04DX003 (ip), vehicle: saline

SMILES: COc1cc([C@@H]2c3cc4c(cc3[C@@H](OC3OC5CO[C@@H](c6cccs6)OC5C(O)C3O)[C@H]3COC(=O)[C@H]23)OCO4)cc(OC)c1O (some centres not stated)
- T/C [1]: 185 % of control
- T/C [2]: 151 % of control and 207 % of control
- T/C (dose: 20.0 mg/kg/injection, schedule: Q04DX003 (ip), vehicle: saline): 264 % of control and 301 % of control
- T/C (dose: 40.0 mg/kg/injection, schedule: Q04DX003 (ip), vehicle: saline): 269 % of control and 355 % of control
- T/C (dose: 80.0 mg/kg/injection, schedule: Q04DX003 (ip), vehicle: saline): 337 % of control and 355 % of control
- T/C (dose: 160.0 mg/kg/injection, schedule: Q04DX003 (ip), vehicle: saline): 337 % of control

SMILES: N[C@@H](Cc1ccc(N(CCCl)CCCl)cc1)C(=O)O
- T/C [3]: 177 % of control
- T/C (dose: 2.5 mg/kg/injection, schedule: Q04DX003 (ip), vehicle: saline): 203 % of control
- T/C (dose: 4.0 mg/kg/injection, schedule: Q04DX003 (ip), vehicle: saline): 236 % of control
- T/C [1]: 240 % of control
- T/C (dose: 8.0 mg/kg/injection, schedule: Q04DX003 (ip), vehicle: saline): 230 % of control
- T/C [2]: 335 % of control
- T/C (dose: 16.0 mg/kg/injection, schedule: Q04DX003 (ip), vehicle: saline): 307 % of control

SMILES: COc1cccc2c1C(=O)c1c(O)c3c(c(O)c1C2=O)C[C@@](O)(C(=O)CO)C[C@@H]3OC1CC(N)C(O)C(C)O1 (some centres not stated)
- T/C (dose: 0.5 mg/kg/injection, schedule: Q04DX003 (iv), vehicle: saline): 103 % of control
- T/C (dose: 1.0 mg/kg/injection, schedule: Q04DX003 (iv), vehicle: saline): 92 % of control
- T/C (dose: 2.0 mg/kg/injection, schedule: Q04DX003 (iv), vehicle: saline): 97 % of control
- T/C (dose: 4.0 mg/kg/injection, schedule: Q04DX003 (iv), vehicle: saline): 95 % of control
- T/C (dose: 8.0 mg/kg/injection, schedule: Q04DX003 (iv), vehicle: saline): 168 % of control and 225 % of control

SMILES: S=c1nc[nH]c2nc[nH]c12
- T/C (dose: 10.0 mg/kg/injection, schedule: Q04DX003 (ip), vehicle: alkali diluted with saline): 335 % of control
- T/C (dose: 20.0 mg/kg/injection, schedule: Q04DX003 (ip), vehicle: alkali diluted with saline): 335 % of control
- T/C (dose: 25.0 mg/kg/injection, schedule: Q04DX003 (ip), vehicle: alkali diluted with saline): 471 % of control
- T/C (dose: 40.0 mg/kg/injection, schedule: Q04DX003 (ip), vehicle: alkali diluted with saline): 335 % of control
- T/C (dose: 50.0 mg/kg/injection, schedule: Q04DX003 (ip), vehicle: alkali diluted with saline): 471 % of control
- T/C (dose: 80.0 mg/kg/injection, schedule: Q04DX003 (ip), vehicle: alkali diluted with saline): 335 % of control
- T/C (dose: 100.0 mg/kg/injection, schedule: Q04DX003 (ip), vehicle: alkali diluted with saline): 178 % of control and 471 % of control
- T/C (dose: 100.0 mg/kg/injection, schedule: Q04DX003 (ip), vehicle: alkali diluted with water): 275 % of control and 283 % of control
- T/C (dose: 160.0 mg/kg/injection, schedule: Q04DX003 (ip), vehicle: alkali diluted with saline): 335 % of control
- T/C (dose: 200.0 mg/kg/injection, schedule: Q04DX003 (ip), vehicle: alkali diluted with saline): 93 % of control
- T/C (dose: 200.0 mg/kg/injection, schedule: Q04DX003 (ip), vehicle: alkali diluted with water): 275 % of control and 369 % of control

SMILES: CC(=O)[C@]1(O)Cc2c(O)c3c(c(O)c2[C@@H](OC2CC(N)C(O)C(C)O2)C1)C(=O)c1c(O)cccc1C3=O (some centres not stated)
- T/C (dose: 0.13 mg/kg/injection, schedule: Q04DX003 (ip), vehicle: saline): 164 % of control
- T/C (dose: 0.25 mg/kg/injection, schedule: Q04DX003 (ip), vehicle: saline): 168 % of control
- T/C (dose: 0.5 mg/kg/injection, schedule: Q04DX003 (ip), vehicle: saline): 178 % of control

SMILES: Cc1ncc(CO)c(CO)c1O
- T/C (dose: 50.0 mg/kg/injection, schedule: Q01DX014 (sc), vehicle: saline): 115 % of control
- T/C (dose: 100.0 mg/kg/injection, schedule: Q01DX014 (sc), vehicle: saline): 99 % of control
- T/C (dose: 200.0 mg/kg/injection, schedule: Q01DX014 (sc), vehicle: saline): 120 % of control
- T/C (dose: 400.0 mg/kg/injection, schedule: Q01DX014 (sc), vehicle: saline): 117 % of control

SMILES: COc1cccc2c1C(=O)c1c(O)c3c(c(O)c1C2=O)C[C@@](O)(C(C)=O)C[C@@H]3OC1CC(N)C(O)C(C)O1 (some centres not stated)
- T/C (dose: 0.38 mg/kg/injection, schedule: Q04DX003 (ip), vehicle: saline): 101 % of control
- T/C (dose: 1.5 mg/kg/injection, schedule: Q04DX003 (ip), vehicle: saline): 174 % of control
- T/C [3]: 177 % of control
- T/C (dose: 3.0 mg/kg/injection, schedule: Q04DX003 (ip), vehicle: saline): 117 % of control

SMILES: COc1c(O)c2c(c3cc(C(=O)N4CCc5c4c(O)c(OC)c4[nH]c(C(=O)N6CC7CC78C6=CC(=O)c6[nH]cc(C)c68)cc54)[nH]c13)CCN2C(N)=O (configuration not stated)
- T/C (dose: 25.0 micrograms/kg/injection, schedule: Q04DX003 (ip), vehicle: DMSO): 95 % of control
- T/C (dose: 50.0 micrograms/kg/injection, schedule: Q04DX003 (ip), vehicle: DMSO): 96 % of control
- T/C (dose: 100.0 micrograms/kg/injection, schedule: Q04DX003 (ip), vehicle: DMSO): 103 % of control
- T/C (dose: 200.0 micrograms/kg/injection, schedule: Q04DX003 (ip), vehicle: DMSO): 100 % of control

SMILES: O=C(O)C1(C(=O)O)CCC1.[NH2-].[NH2-].[Pt+2]
- T/C (dose: 10.8 mg/kg/injection, schedule: Q01DX009 (ip), vehicle: water): 159 % of control
- T/C (dose: 11.7 mg/kg/injection, schedule: Q04DX003 (ip), vehicle: water): 106 % of control
- T/C [4]: 108 % of control
- T/C (dose: 18.0 mg/kg/injection, schedule: Q01DX009 (ip), vehicle: water): 175 % of control
- T/C (dose: 19.4 mg/kg/injection, schedule: Q04DX003 (ip), vehicle: water): 106 % of control
- T/C [5]: 114 % of control
- T/C (dose: 32.4 mg/kg/injection, schedule: Q04DX003 (ip), vehicle: water): 164 % of control
- T/C [6]: 178 % of control
- T/C (dose: 54.0 mg/kg/injection, schedule: Q04DX003 (ip), vehicle: water): 170 % of control and 215 % of control
- T/C (dose: 90.0 mg/kg/injection, schedule: Q04DX003 (ip), vehicle: water): 103 % of control
- T/C [7]: 217 % of control

SMILES: CN(C)CNC(=O)c1ccccc1
- T/C (dose: 20.0 mg/kg/injection, schedule: Q01DX009 (ip), vehicle: water): 102 % of control
- T/C (dose: 40.0 mg/kg/injection, schedule: Q01DX009 (ip), vehicle: water): 102 % of control
- T/C (dose: 80.0 mg/kg/injection, schedule: Q01DX009 (ip), vehicle: water): 115 % of control
- T/C (dose: 160.0 mg/kg/injection, schedule: Q01DX009 (ip), vehicle: water): 107 % of control

SMILES: CC(=O)O[C@H]1C(=O)[C@@]2(C)[C@H]([C@H](OC(=O)c3ccccc3)[C@]3(O)C[C@H](OC(=O)[C@H](O)[C@@H](NC(=O)c4ccccc4)c4ccccc4)C(C)=C1C3(C)C)[C@]1(OC(C)=O)CO[C@@H]1C[C@@H]2O
- T/C (dose: 0.75 mg/kg/injection, schedule: Q01DX009 (ip), vehicle: Klucel (hydroxypropylcellulose) (HPC)): 102 % of control
- T/C (dose: 1.56 mg/kg/injection, schedule: Q01DX009 (ip), vehicle: Klucel (hydroxypropylcellulose) (HPC)): 118 % of control
- T/C (dose: 3.0 mg/kg/injection, schedule: Q01DX009 (ip), vehicle: Klucel (hydroxypropylcellulose) (HPC)): 112 % of control
- T/C (dose: 3.12 mg/kg/injection, schedule: Q01DX009 (ip), vehicle: Klucel (hydroxypropylcellulose) (HPC)): 112 % of control
- T/C (dose: 6.0 mg/kg/injection, schedule: Q01DX009 (ip), vehicle: Klucel (hydroxypropylcellulose) (HPC)): 121 % of control
- T/C (dose: 12.0 mg/kg/injection, schedule: Q01DX009 (ip), vehicle: Klucel (hydroxypropylcellulose) (HPC)): 124 % of control

SMILES: CN1N=C(N)c2cn(C3OC(COP(=O)(O)O)C(O)C3O)c3ncnc1c23 (configuration not stated)
- T/C [4]: 222 % of control
- T/C (dose: 12.5 mg/kg/injection, schedule: Q04DX003 (ip), vehicle: water): 471 % of control
- T/C [5]: 222 % of control
- T/C (dose: 25.0 mg/kg/injection, schedule: Q04DX003 (ip), vehicle: water): 471 % of control
- T/C [6]: 222 % of control and 275 % of control and 369 % of control
- T/C (dose: 50.0 mg/kg/injection, schedule: Q04DX003 (ip), vehicle: water): 471 % of control
- T/C [7]: 222 % of control and 275 % of control and 369 % of control
- T/C (dose: 100.0 mg/kg/injection, schedule: Q04DX003 (ip), vehicle: water): 471 % of control
- T/C (dose: 200.0 mg/kg/injection, schedule: Q04DX003 (ip), vehicle: saline): 275 % of control and 369 % of control

SMILES: NC(=O)c1cn(C2OC(CO)C(O)C2O)c2ncnc(N)c12 (configuration not stated)
- T/C (dose: 0.4 mg/kg/injection, schedule: Q04DX003 (ip), vehicle: saline with Tween-80): 107 % of control
- T/C (dose: 0.8 mg/kg/injection, schedule: Q04DX003 (ip), vehicle: saline with Tween-80): 173 % of control
- T/C (dose: 6.0 mg/kg/injection, schedule: Q04DX003 (ip), vehicle: saline with Tween-80): 182 % of control
